Assay results as given in patent US12440471B2, “Compositions and methods for the treatment of bronchopulmonary dysplasia (BPD) and BPD-associated pulmonary hypertension” (AyuVis Research, Inc., priority 2021, dated 2025).

What was measured:
[1] = tested on: pre-term lamb BPD model; assay: Pre-term lamb BPD model: respiratory severity score; assay type: in vivo
Excerpt: A unique PT lamb model, developed by Dr. Albertine (University of Utah), was used to emulate the clinical setting for PT human infants with respiratory failure related to premature birth before the lungs are mature enough to support extra-uterine life. Both the PT lamb model and PT human infants are whole-organism physiological beings that have the setting of PT birth and prolonged ventilation support with oxygen-rich gas because of respiratory failure related to lung structural and functional immaturity, including surfactant deficiency. Ventilation support with oxygen-rich gas is for days, weeks, months, and is associated with co-morbidities of the brain, liver, distal ileum, and kidney injury, and inadequate nutrition and poor postnatal growth. This PT lamb model for BPD continues to provide mechanistic insights during the evolution of BPD (Joss-Moore, Metcalfe et al. 2010), development of multiple-organ dysfunction (Albertine 2012, Abdullah, Seidel et al. 2016), and long-term structural and functional impairments (Dahl, Bowen et al. 2018).
A dose range-finding study was conducted with the goal of treating two PT lambs with either a vehicle control or low, mid, and high doses of AVR-48 (compound 8) by twice daily intravenous infusions during 6 to 7 days of mechanical ventilation, followed by transition to noninvasive respiratory support (NIS) for 3 days, for a total of 10 days of management of these PT lambs. Compound 8 was not given during the period of noninvasive respiratory support to assess short-term persistence of effect of compound 8. The PK and PD parameters for compound 8 were also determined.
The modified PT lamb model used 6 d to 7 d of mechanical ventilation for respiratory management to identify temporal pathogenesis of the disease. […]
A total 9 lambs were used for this study. […] The PK parameters were calculated following both non-Compartmental Pharmacokinetic Modeling and population Pharmacokinetic Modeling as described by Roberts et al previously (Roberts, Stockmann et al. 2016). […] The blood samples also were analyzed for hematology and liver enzymes. […]

[2] = biological target: T1, TLR4 (Homo sapiens, UniProt O00206); assay: TLR4 assay: unbound TLR4 ELISA in PMA-stimulated THP-1 cell lysates; assay type: binding; details: THP-1 human monocyte cells
T1 construct: Cell lysates were prepared, total protein was quantified and treated with different concentrations; host or cells: THP-1 cells stimulated with PMA for 48 h, then lysed
T1 sequence (O00206 24-839): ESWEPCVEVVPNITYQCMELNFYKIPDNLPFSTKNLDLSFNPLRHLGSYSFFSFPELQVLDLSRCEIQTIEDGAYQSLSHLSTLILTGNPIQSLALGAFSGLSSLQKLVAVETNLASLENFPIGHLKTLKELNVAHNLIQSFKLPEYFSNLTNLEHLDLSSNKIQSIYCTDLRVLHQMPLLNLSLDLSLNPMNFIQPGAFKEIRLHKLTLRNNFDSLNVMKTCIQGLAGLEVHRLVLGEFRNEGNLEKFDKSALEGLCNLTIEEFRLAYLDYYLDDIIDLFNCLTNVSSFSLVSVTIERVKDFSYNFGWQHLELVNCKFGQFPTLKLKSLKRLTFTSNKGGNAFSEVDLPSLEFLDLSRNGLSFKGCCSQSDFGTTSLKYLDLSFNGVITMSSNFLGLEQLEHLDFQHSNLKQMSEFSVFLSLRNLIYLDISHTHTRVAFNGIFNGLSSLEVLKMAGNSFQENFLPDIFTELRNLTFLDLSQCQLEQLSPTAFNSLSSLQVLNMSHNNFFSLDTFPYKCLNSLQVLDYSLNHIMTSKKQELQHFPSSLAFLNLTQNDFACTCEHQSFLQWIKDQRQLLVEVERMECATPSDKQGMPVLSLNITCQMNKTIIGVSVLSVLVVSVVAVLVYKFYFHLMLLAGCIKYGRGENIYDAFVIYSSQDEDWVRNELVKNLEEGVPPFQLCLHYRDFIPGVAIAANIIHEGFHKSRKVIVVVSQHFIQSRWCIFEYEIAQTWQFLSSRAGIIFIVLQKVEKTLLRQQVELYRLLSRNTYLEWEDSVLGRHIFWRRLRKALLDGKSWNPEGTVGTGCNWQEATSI
Method: FIG. 26A, TLR4 assay: 1×10^5 THP cells (ATCC) were seeded in 24 well plates and stimulated with phorbol myristyl actetate (PMA, 200 ng/mL) for 48 h. Cell lysates were prepared, total protein was quantified and treated with different concentrations (4, 16, 62.5 and 250 μM) of the AVR-48 for 2 h. ELISA was performed after to assess unbound TLR4 following manufacturer's instruction (Raybiotech). TLR4 IC50 of the AVR-48 was calculated using GraphPad Prism7.04.

[3] = tested on: human lung alveolar type I epithelial cells (AT1); assay: TNF-α and nitric oxide in human lung alveolar type I epithelial cells co-treated with LPS; assay type: cell-based
[4] = tested on: pre-term lamb BPD model; assay: Pre-term lamb BPD model: lung histopathology and radial alveolar count; assay type: in vivo
Excerpt: Detailed methods have been published previously by Reyburn et al. and Null et al (Reyburn, Li et al. 2008, Null, Alvord et al. 2014), relevant portions incorporated herein by reference. All protocols have been adhered to APS/NIH guidelines for animal research and have been approved by the Institution Animal Care and Use Committees (IACUC) at the University of Utah. Lung injury in PT neonates, including PT lambs, that are mechanically ventilated (MV) is the classical picture of alveolar simplification. Alveolar simplification is evident as distended terminal respiratory units that have few secondary septa and thick, cellular mesenchyme.
The micrographs show terminal respiratory units (TRU) of the lung at the same magnification. […] Radial alveolar count is the number of tissue intersections across a terminal respiratory unit, from the center of the respiratory bronchiole to the perimeter of the terminal respiratory unit.

[5] = tested on: adult respiratory distress syndrome/acute lung injury (ARDS/ALI) mouse model; details: cited from earlier work
[6] = tested on: pre-term lamb BPD model; assay: Pre-term lamb BPD model: respiratory system mechanics by forced oscillation technique; assay type: in vivo
Excerpt: Forced oscillation technique (FOT) allows non-invasive measurement of respiratory system (rs) impedance (Zrs) in uncooperative subjects by applying a pressure stimulus at the airway opening and measuring the resulting flow. The inventors have shown that FOT provides reliable noninvasive measurement of respiratory system mechanics in spontaneously breathing, normal term lambs from birth through the first 5 months of life (Dahl, Bowen et al. 2018). The methods and normal reference values defined in this study provide normal physiological context for determining the pathophysiological consequences of preterm birth.

Q: With `CC(=O)N[C@@H]1C(Oc2ccc([N+](=O)[O-])cc2)OC(CO)C(O)C1O` (stereo partly shown) [AVR-48] as the compound, how does the “Respiratory Severity Score (RSS)” value ([1]; 3.0 mg/kg IV, n=4, lowest RSS) read?
A: 2.4

Q: What about the “Respiratory Severity Score (RSS) vs placebo” value ([1]; 1.0 and 3.0 mg/kg IV, 2/d, 7 days) of the same compound?
A: Significant improvement

Q: What about the “highest efficacious dose (RSS)” value ([1]; IV twice daily) of the same compound?
A: 3.0 mg/kg

Q: What about the “binding to TLR4” value [2] of the same compound?
A: binds to TLR4

Q: What about the “binding to TLR4” value ([2]; listed as 8) of the same compound?
A: bind TLR4

Q: What about the “nitric oxide (NO) production” value ([3]; co-treated with LPS) of the same compound?
A: decreased

Q: And the TNF-α production ([3]; co-treated with LPS, ELISA)?
A: decreased

Q: And the IL-10 level ([3]; epithelial cells)?
A: No significant level

Q: And the IL-β level ([3]; epithelial cells)?
A: No significant level

Q: And the “radial alveolar count / alveoli formation” value ([4]; 3.0 mg/Kg, preliminary results)?
A: promotes alveoli formation

Q: What about the “alveolar simplification (lung histopathology)” value ([4]; vs vehicle treated PT lamb) of the same compound?
A: significantly improved

Q: What about the efficacy dose ([5]; IV, Shah, Das et al. 2021) of the same compound?
A: 10 mg/kg/dose

Q: What about the severe lung inflammation ([5]; LPS-, hyperoxia- and CLP-induced ARDS in adult mice) of the same compound?
A: decreases severe lung inflammation

Q: And the “reactance (X7 hz)” value ([6]; 3 mg/Kg, day of life 10)?
A: less reactance

Q: What about the “small airway resistance (R7-20 hz)” value ([6]; 3 mg/Kg, day of life 10) of the same compound?
A: less small airway resistance

Q: And the “resistance (R7 hz; respiratory system)” value ([6]; 3.0 mg/Kg, day of life 10, relative to placebo)?
A: lower resistance
